Results reported in PMC3626541, “A first in human, safety, pharmacokinetics, and clinical activity phase I study of once weekly administration of the Hsp90 inhibitor ganetespib (STA-9090) in patients with solid malignancies” (BMC Cancer, 2013).

Test system: patients with advanced solid tumors
Experiment: Safety: adverse events (NCI CTCAE v3.0), ECG
Format: in vivo, human
Method: Patients’ demographics and medical history were recorded at baseline. Physical examination and PS were assessed at baseline and on Day 1 of each cycle. Adverse events (AEs), vital signs, hematology and chemistry values, and creatinine clearance were assessed at baseline and weekly during treatment. Toxicity was graded using National Cancer Institute Common Terminology Criteria for Adverse Events (NCI CTCAE), version 3.0. An electrocardiogram (ECG) was performed at baseline, before and after treatment on Days 1 and 15 of Cycles 1 and 2, and on Day 15 of even-numbered cycles thereafter. CT scans were done at baseline and every 8 weeks thereafter. Tumor response was assessed using Response Evaluation Criteria in Solid Tumors (RECIST, v1.0), with confirmation of responses performed at least 4 weeks later.

[1] = Cycle 1 Day 1 post-dose, patients with QTc prolongation
[2] = repeat ECG later on the same day

## CC(C)c1cc(-c2n[nH]c(=O)n2-c2ccc3c(ccn3C)c2)c(O)cc1O [Ganetespib, 5-[2,4-dihydroxy-5-(1 methyl-ethyl)phenyl]-2,4 dihydro-4-(1-methyl-1H indol-5 yl)-3H-1,2,4 triazole-3-one]
150-216 mg/m^2, n = 22
  Constipation, AE of any grade, Number (%) of patients: 3 (13.6) n (%)
  Decreased appetite, AE of any grade, Number (%) of patients: 8 (36.4) n (%)
  Dehydration, AE of any grade, Number (%) of patients: 3 (13.6) n (%)
  Dehydration, CTCAE Grade 3 and 4 AE, Number (%) of patients: 1 (4.5) n (%)
  Dehydration, serious adverse events, Number (%) of patients: 1 (4.5) n (%)
  Diarrhea, AE of any grade, Number (%) of patients: 21 (95.5) n (%)
  Diarrhea, CTCAE Grade 3 and 4 AE, Number (%) of patients: 2 (9.1) n (%)
  Dizziness, AE of any grade, Number (%) of patients: 3 (13.6) n (%)
  Dry mouth, AE of any grade, Number (%) of patients: 3 (13.6) n (%)
  Dyspnea, AE of any grade, Number (%) of patients: 4 (18.2) n (%)
  Extremity pain, AE of any grade, Number (%) of patients: 1 (4.5) n (%)
  Fatigue, AE of any grade, Number (%) of patients: 13 (59.1) n (%)
  Fatigue, CTCAE Grade 3 and 4 AE, Number (%) of patients: 4 (18.2) n (%)
  Headache, AE of any grade, Number (%) of patients: 6 (27.3) n (%)
  Hyperbilirubinemia, CTCAE Grade 3 and 4 AE, Number (%) of patients: 2 (9.1) n (%)
  Hypokalemia, AE of any grade, Number (%) of patients: 4 (18.2) n (%)
  Hypokalemia, CTCAE Grade 3 and 4 AE, Number (%) of patients: 2 (9.1) n (%)
  Hyponatremia, CTCAE Grade 3 and 4 AE, Number (%) of patients: 0 n (%)
  Hypophosphatemia, AE of any grade, Number (%) of patients: 2 (9.1) n (%)
  Hypophosphatemia, CTCAE Grade 3 and 4 AE, Number (%) of patients: 2 (9.1) n (%)
  Insomnia, AE of any grade, Number (%) of patients: 6 (27.3) n (%)
  Musculoskeletal chest pain, AE of any grade, Number (%) of patients: 4 (18.2) n (%)
  Nausea, AE of any grade, Number (%) of patients: 7 (31.8) n (%)
  Peripheral edema, AE of any grade, Number (%) of patients: 5 (22.7) n (%)
  Pneumonia, serious adverse events, Number (%) of patients: 1 (4.5) n (%)
  Rash, AE of any grade, Number (%) of patients: 1 (4.5) n (%)
  Serum amylase elevated, CTCAE Grade 3 and 4 AE, Number (%) of patients: 1 (4.5) n (%)
  Spinal cord compression, CTCAE Grade 3 and 4 AE, Number (%) of patients: 0 n (%)
  Urinary tract infection, AE of any grade, Number (%) of patients: 3 (13.6) n (%)
  Vomiting, AE of any grade, Number (%) of patients: 3 (13.6) n (%)
  Weight decreased, AE of any grade, Number (%) of patients: 5 (22.7) n (%)
150-216 mg/m^2, n = 22, first of two ALT elevated lines
  ALT elevated, AE of any grade, Number (%) of patients: 5 (22.7) n (%)
150-216 mg/m^2, n = 22, second of two ALT elevated lines
  ALT elevated, AE of any grade, Number (%) of patients: 3 (13.6) n (%)
150–216 mg/m^2 dose levels
  Incidence of diarrhea: 95.5%
  Incidence of fatigue: 59.1%
All patients, n = 53
  ALT elevation, CTCAE Grade 3 and 4 AE, Number (%) of patients: 3 (5.7) n (%)
  AST elevated, AE of any grade, Number (%) of patients: 9 (17) n (%)
  Abdominal distension, AE of any grade, Number (%) of patients: 6 (11.3) n (%)
  Abdominal pain, AE of any grade, Number (%) of patients: 20 (37.7) n (%)
  Abdominal pain, serious adverse events, Number (%) of patients: 2 (3.8) n (%)
  Anemia, AE of any grade, Number (%) of patients: 16 (30.2) n (%)
  Any event, AE of any grade, Number (%) of patients: 53 (100) n (%)
  Any event, CTCAE Grade 3 and 4 AE, Number (%) of patients: 36 (67.9) n (%)
  Any event, serious adverse events, Number (%) of patients: 15 (28.3) n (%)
  Arthralgia, CTCAE Grade 3 and 4 AE, Number (%) of patients: 2 (3.8) n (%)
  Asthenia, AE of any grade, Number (%) of patients: 8 (15.1) n (%)
  Asthenia, CTCAE Grade 3 and 4 AE, Number (%) of patients: 4 (7.5) n (%)
  Asthenia, serious adverse events, Number (%) of patients: 2 (3.8) n (%)
  Back pain, AE of any grade, Number (%) of patients: 8 (15.1) n (%)
  Constipation, AE of any grade, Number (%) of patients: 9 (17) n (%)
  Decreased appetite, AE of any grade, Number (%) of patients: 11 (20.8) n (%)
  Dehydration, AE of any grade, Number (%) of patients: 7 (13.2) n (%)
  Dehydration, CTCAE Grade 3 and 4 AE, Number (%) of patients: 3 (5.7) n (%)
  Dehydration, serious adverse events, Number (%) of patients: 2 (3.8) n (%)
  Diarrhea, AE of any grade, Number (%) of patients: 47 (88.7) n (%)
  Diarrhea, CTCAE Grade 3 and 4 AE, Number (%) of patients: 4 (7.5) n (%)
  Dizziness, AE of any grade, Number (%) of patients: 6 (11.3) n (%)
  Dry mouth, AE of any grade, Number (%) of patients: 6 (11.3) n (%)
  Dyspnea, AE of any grade, Number (%) of patients: 9 (17) n (%)
  Extremity pain, AE of any grade, Number (%) of patients: 6 (11.3) n (%)
  Fatigue, AE of any grade, Number (%) of patients: 30 (56.6) n (%)
  Fatigue, CTCAE Grade 3 and 4 AE, Number (%) of patients: 6 (11.3) n (%)
  Headache, AE of any grade, Number (%) of patients: 9 (17) n (%)
  Hyperbilirubinemia, CTCAE Grade 3 and 4 AE, Number (%) of patients: 3 (5.7) n (%)
  Hypokalemia, AE of any grade, Number (%) of patients: 7 (13.2) n (%)
  Hypokalemia, CTCAE Grade 3 and 4 AE, Number (%) of patients: 2 (3.8) n (%)
  Hyponatremia, CTCAE Grade 3 and 4 AE, Number (%) of patients: 3 (5.7) n (%)
  Hypophosphatemia, AE of any grade, Number (%) of patients: 7 (13.2) n (%)
  Hypophosphatemia, CTCAE Grade 3 and 4 AE, Number (%) of patients: 4 (7.5) n (%)
  Insomnia, AE of any grade, Number (%) of patients: 10 (18.9) n (%)
  Musculoskeletal chest pain, AE of any grade, Number (%) of patients: 6 (11.3) n (%)
  Nausea, AE of any grade, Number (%) of patients: 18 (34) n (%)
  Peripheral edema, AE of any grade, Number (%) of patients: 9 (17) n (%)
  Pneumonia, serious adverse events, Number (%) of patients: 2 (3.8) n (%)
  Rash, AE of any grade, Number (%) of patients: 6 (11.3) n (%)
  Serum amylase elevated, CTCAE Grade 3 and 4 AE, Number (%) of patients: 2 (3.8) n (%)
  Spinal cord compression, CTCAE Grade 3 and 4 AE, Number (%) of patients: 2 (3.8) n (%)
  Urinary tract infection, AE of any grade, Number (%) of patients: 8 (15.1) n (%)
  Vomiting, AE of any grade, Number (%) of patients: 10 (18.9) n (%)
  Weight decreased, AE of any grade, Number (%) of patients: 7 (13.2) n (%)
All patients, n = 53, first of two ALT elevated lines
  ALT elevated, AE of any grade, Number (%) of patients: 10 (18.9) n (%)
All patients, n = 53, second of two ALT elevated lines
  ALT elevated, AE of any grade, Number (%) of patients: 6 (11.3) n (%)
[1]
  QT: 438 ms
  QTc (QT with Bazett correction): 457 ms
All 53 patients
  Patients with dose reduction: 7.5%
  Patients with dose reduction and delay: 7.5%
  Patients with missed dose: 30.2%
All 53 patients, mainly due to adverse events
  Patients with dose modification: 45.3%
All in cohort 1
  Patients who discontinued treatment due to drug-unrelated adverse events: 5.7%
All patients
  Patients with Grade 3 or 4 AE: 67.9%
  Patients with Grade 3 or 4 fatigue: 11.3%
  Patients with diarrhea, Grade 1 and 2: 88.7%
  Patients with fatigue, Grade 1 and 2: 56.6%
  Patients with onset of diarrhea between days 1–7: 75.5%
  Patients with transient ALP elevation: 18.9%
  Patients with transient ALT elevation: 11.3%
  Patients with transient AST elevation: 17%
  Patients with treatment-related anemia: 5.7%
  Patients with treatment-related neutropenia: 5.7%
All patients, mild and transient
  Patients with visual changes: 15%
All patients, mild to moderate
  Patients with abdominal pain: 37.7%
  Patients with nausea: 34%
  Patients with vomiting: 18.9%
All patients, none considered treatment-related
  Patients with on-treatment SAEs: 28.3%
All patients, not considered study drug-related
  Patients with Grade 2 or 3 hyberbilirubinemia: 7.5%
Doses of 35 mg/m^2, 114 mg/m^2 and 150 mg/m^2
  Patients with Grade 1 or 2 blurred vision: Three patients
Higher dose levels, Cycle 1 Day 1 post-dose
  Patients with QTc prolongation: Three patients
Mild and transient
  Patients with treatment-related visual impairment: Two patients
None deemed treatment-related
  Deaths during the study: Three deaths
Not symptomatic, not considered clinically meaningful
  Patients with QTc changes: 91%
One each at 216 and 259 mg/m^2, possibly related to study drug
  Patients with Grade 1 transient visual impairment: 2 patients
[2]
  QT: 414 ms
  QTc: 433 ms
